Measurements taken from patent publication US10889591B2, “PDE9 inhibitor and use thereof” (Nanjing TransThera Biosciences Co. Ltd., priority 2017, dated 2021).
Read-outs that look alike come from different tables or passages of the source. Blank lines part the entries; values can stand above or below the compound they belong to.

Legend:
[1] = target: T1, Human PDE9 (Homo sapiens (Human), UniProt O76083); details: background statement, in words; cited from earlier work
[2] = human; for CLint: microsomes
[3] = Rat pharmacokinetic evaluation; type: in vivo, SD male rats; details: male, Sprague-Dawley, plasma, SD rat; for Tmax / AUC(0-t) / half-life: po, intragastric 5 mg/kg; for Tmax: median; for AUC(0-t): read-out: AUClast po; for half-life: read-out: tz1/2 po (terminal elimination half-life) (converted); for bioavailability: dose iv/po 1/5 mg/kg, read-out: F % (absolute bioavailability)
Method: Experimental Example 4: Rat Pharmacokinetic Evaluation of the Compounds of the Invention
Aim: The in vivo pharmacokinetic parameters of the compounds in SD male rats (purchased from Beijing Vital River Animal Technology Co., Ltd.) were evaluated and bioavailability of the compounds was examined.
Animal Administration and Sample Collection:
The solution of compounds 65, 90, 107, 158 was intragastrically administered to SD rat at a dose of 5.0 mg/kg.
The experimental compound 76 was dissolved in 30% DMF+30% PEG400+40% saline to prepare a solution. The solution of compound 76 was intragastrically administered to SD rat at a dose of 5.0 mg/kg.
The experimental compound 76 was dissolved in 30% DMF+30% PEG400+40% saline to prepare a solution.
The experimental compounds 84 and 96 were dissolved in 5% DMSO+10% PEG400+85% (28% HP-β-CD) saline to prepare a solution. The solution of compounds 84 and 96 was intragastrically administered to SD rat at a dose of 5.0 mg/kg.
The experimental compounds 84 and 96 were dissolved in 5% DMSO+10% PEG400+85% (28% HP-β-CD) saline to prepare a solution.
The animals were fixed. The tail was heated with a water bath at 10 min before each time point. About 100 μL of blood from tail vein was collected, and then placed in an anti-coagulation tube containing EDTA-K2 after collection. Blood samples were centrifuged at 8000 rpm at 4° C. for 6 min to obtain plasma samples.
The concentration of test sample was output using Analyst 1.6.1 from AB SCIEX.

[4] = Rat pharmacokinetic evaluation; type: in vivo, SD male rats; details: SD rat, intravenous bolus 1 mg/kg; for AUC(0-t) / clearance / half-life: male, Sprague-Dawley, plasma; for AUC(0-t): read-out: AUClast iv; for clearance: read-out: Cl_obs iv (clearance rate) (converted); for half-life: read-out: tz1/2 iv (terminal elimination half-life) (converted)
[5] = in vitro; details: human, microsomes
[6] = target: T1, Human PDE9; details: background statement; read-out: binding constant (Km) of PDE9; cited from earlier work
[7] = target: PDE1A1 Enzyme (Homo sapiens (Human), UniProt P54750); assay: PDE enzymology evaluation, PDE1A1; type: biochemical
PDE1A1 Enzyme, sequence (P54750 whole entry, change not shown): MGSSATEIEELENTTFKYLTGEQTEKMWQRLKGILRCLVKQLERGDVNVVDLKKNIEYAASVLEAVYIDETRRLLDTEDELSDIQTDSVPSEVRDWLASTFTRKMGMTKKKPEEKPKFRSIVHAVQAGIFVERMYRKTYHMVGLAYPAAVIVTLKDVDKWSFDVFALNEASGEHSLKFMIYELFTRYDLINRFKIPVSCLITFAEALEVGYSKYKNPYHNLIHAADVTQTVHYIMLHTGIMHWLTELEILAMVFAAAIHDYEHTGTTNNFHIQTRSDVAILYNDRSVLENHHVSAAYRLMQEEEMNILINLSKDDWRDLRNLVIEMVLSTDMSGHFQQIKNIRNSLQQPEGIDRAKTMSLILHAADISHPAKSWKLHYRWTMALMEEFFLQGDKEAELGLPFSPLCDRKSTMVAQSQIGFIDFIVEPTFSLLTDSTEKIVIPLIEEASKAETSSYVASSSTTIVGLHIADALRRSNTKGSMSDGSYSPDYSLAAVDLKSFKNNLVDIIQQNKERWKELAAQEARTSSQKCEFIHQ
Method: (§1) Experimental Example 5: PDE Enzymology Evaluation Method
(§2) Test substance: Compounds of the invention, prepared by the corresponding examples of the invention
(§3) 1. Experimental materials and instruments
PDE1A1 Enzyme (BPS, Cat. No. 60010)
(§4) 2. Experimental procedure
(§5) Preparation of the compounds: the compounds were prepared into 10 mM compound stock solution in DMSO for long-term storage. The obtained compound stock solution was diluted in 100 times with DMSO to obtain 100 μM compound working mother solution, and then the compound working mother solution was diluted in 3 times with DMSO to obtain 10 concentration gradients of diluted compound mother liquor (100×).
(§6) Incubation with the compounds: A very small amount of liquid pipetting system Echo was used to pipette the diluted compound mother liquor into a 384-well plate. 200 nL diluted compound mother liquor and 10 μL PDE1A1, PDE3A, PDE5A1 and PDE8A1 enzyme solution were added to each compound well. […] In the maximum reading hole (Max), the compound was replaced by solvent. In the minimum reading hole (Min), the compound and enzyme solution were replaced by solvent.
(§7) Detection: Fluorescence readings (F) at 480 nm/535 nm were detected using a microplate reader.
(§8) Calculation: The inhibition rate was calculated as follows, and IC50 was fitted using GraphPad Prism 5.0: […]

[8] = target: PDE3A Enzyme (Homo sapiens (Human), UniProt Q14432); assay: PDE enzymology evaluation, PDE3A; type: biochemical
PDE3A Enzyme, sequence (Q14432 whole entry): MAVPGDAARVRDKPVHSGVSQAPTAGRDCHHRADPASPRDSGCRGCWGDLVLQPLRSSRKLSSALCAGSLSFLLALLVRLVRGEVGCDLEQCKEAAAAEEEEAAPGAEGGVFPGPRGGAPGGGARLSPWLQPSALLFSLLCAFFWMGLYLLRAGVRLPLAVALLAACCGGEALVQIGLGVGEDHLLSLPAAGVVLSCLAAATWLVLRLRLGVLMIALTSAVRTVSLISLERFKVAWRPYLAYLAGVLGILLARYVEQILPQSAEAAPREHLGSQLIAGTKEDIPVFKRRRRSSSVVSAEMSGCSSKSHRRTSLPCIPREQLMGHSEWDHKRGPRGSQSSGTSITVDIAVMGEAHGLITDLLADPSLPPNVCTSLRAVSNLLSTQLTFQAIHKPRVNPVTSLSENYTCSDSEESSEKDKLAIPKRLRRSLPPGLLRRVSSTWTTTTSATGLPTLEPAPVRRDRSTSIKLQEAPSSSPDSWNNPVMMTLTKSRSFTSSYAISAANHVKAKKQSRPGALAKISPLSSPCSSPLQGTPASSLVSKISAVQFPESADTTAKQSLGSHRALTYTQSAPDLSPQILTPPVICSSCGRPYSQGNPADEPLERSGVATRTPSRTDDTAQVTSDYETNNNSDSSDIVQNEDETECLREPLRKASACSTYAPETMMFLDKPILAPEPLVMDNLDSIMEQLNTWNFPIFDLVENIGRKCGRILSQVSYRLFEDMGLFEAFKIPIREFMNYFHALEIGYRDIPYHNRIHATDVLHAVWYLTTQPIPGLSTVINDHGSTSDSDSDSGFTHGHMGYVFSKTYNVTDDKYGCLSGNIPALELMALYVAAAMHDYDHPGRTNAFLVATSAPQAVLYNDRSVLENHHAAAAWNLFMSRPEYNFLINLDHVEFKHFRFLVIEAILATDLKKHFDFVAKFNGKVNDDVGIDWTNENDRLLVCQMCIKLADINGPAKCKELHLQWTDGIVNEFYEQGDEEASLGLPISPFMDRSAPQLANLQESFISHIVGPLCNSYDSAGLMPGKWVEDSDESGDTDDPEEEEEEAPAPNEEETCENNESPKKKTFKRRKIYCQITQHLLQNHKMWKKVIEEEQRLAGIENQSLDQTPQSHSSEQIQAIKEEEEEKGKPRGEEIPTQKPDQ
Method: as §1, §2, §3
PDE3A Enzyme (BPS, Cat. No. 60030)
as §4, §5, §6, §7, §8

[9] = target: PDE8A1 Enzyme (Homo sapiens (Human), UniProt O60658); assay: PDE enzymology evaluation, PDE8A1; type: biochemical
PDE8A1 Enzyme, sequence (O60658 whole entry): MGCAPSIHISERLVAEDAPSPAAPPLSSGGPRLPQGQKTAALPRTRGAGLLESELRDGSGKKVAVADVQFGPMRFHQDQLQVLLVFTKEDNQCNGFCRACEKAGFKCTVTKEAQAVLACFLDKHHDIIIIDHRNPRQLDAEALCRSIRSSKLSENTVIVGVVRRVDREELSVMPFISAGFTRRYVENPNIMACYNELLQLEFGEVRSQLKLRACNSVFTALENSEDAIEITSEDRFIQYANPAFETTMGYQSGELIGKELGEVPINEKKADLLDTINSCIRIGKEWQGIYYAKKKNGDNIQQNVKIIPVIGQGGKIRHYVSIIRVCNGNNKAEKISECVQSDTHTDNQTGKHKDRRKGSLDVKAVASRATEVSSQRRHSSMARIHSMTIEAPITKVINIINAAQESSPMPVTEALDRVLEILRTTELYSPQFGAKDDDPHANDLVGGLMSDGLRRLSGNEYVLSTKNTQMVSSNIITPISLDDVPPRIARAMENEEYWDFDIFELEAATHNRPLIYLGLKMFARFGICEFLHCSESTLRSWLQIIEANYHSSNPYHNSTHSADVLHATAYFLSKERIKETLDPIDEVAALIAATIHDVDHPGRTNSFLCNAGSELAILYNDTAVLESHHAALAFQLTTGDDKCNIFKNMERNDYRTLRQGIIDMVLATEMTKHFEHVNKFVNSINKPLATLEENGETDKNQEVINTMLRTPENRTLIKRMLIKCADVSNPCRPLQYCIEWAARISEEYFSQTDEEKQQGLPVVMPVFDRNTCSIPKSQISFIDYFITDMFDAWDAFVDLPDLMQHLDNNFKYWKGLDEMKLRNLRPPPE
Method: as §1, §2, §3
PDE8A1 Enzyme (BPS, Cat. No. 60080)
as §4, §5, §6, §7, §8

[10] = target: PDE5A1 Enzyme (Homo sapiens (Human), UniProt O76074); assay: PDE enzymology evaluation, PDE5A1; type: biochemical
Method: as §1, §2, §3
PDE5A1 Enzyme (BPS, Cat. No. 60050)
as §4, §5, §6, §7, §8

[11] = Canine pharmacokinetic evaluation; type: in vivo; details: Beagle dogs
Description: 1. Animal Administration and Sample Collection
2. Sample Analysis Method
3. Data Processing Method

T1 sequence (O76083 whole entry): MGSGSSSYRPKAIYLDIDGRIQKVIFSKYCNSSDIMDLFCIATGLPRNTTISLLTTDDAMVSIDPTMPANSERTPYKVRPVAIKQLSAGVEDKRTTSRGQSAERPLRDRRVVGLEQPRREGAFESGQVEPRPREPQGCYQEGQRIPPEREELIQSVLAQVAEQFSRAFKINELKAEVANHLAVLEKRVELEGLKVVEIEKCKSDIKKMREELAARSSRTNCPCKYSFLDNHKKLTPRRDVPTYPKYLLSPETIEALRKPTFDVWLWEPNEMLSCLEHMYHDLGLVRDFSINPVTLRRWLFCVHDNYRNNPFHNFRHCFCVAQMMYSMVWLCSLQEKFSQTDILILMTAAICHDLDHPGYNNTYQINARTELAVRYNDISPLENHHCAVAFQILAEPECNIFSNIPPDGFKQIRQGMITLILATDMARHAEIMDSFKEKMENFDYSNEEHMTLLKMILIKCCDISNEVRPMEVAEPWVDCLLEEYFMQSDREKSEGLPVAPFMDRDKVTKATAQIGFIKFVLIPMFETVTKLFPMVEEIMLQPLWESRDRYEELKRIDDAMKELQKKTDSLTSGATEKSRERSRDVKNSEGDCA

Compound: CCOC(=O)C1=C[C@]2(CC)CCCN3CCc4c(n1c1ccccc41)[C@@H]32 [vinpocetine]
inhibition activity on PDE9 [1]: no or very low inhibition activity

Compound: CCc1cc2c(N3CCC4(CC3)CC4)c(C#N)c(=O)[nH]c2cn1 [Compound 76, 6-ethyl-2-oxo-4-(6-azaspiro[2.5]octane-6-yl)-1,2-dihydro-1,7-naphthyridin-3-carbonitrile]
Original drug residual % at 60 min [2]: 87.3% | k [2]: 0.0015 min⁻¹ | CLint [2]: 0.0030 mL · min^−1 · mg^−1 proteins | Tmax [3]: 1 h | AUC(0-t) [3]: 5750 ng·h/mL | half-life [3]: 9.6 h | bioavailability [3]: 113% | Vz_obs iv (apparent distribution volume) [4]: 1.25 L/kg | AUC(0-t) [4]: 1010 ng·h/mL | clearance [4]: 17.3 mL/min/kg | half-life [4]: 0.89 h | half-life [5]: 7.7 h

Compound: N#Cc1c(N2CCC3(CC2)CC3)c2cc(C(O)C3CC3)ncc2[nH]c1=O (centres unmarked) [Compound 90, 6-(cyclopropyl (hydroxy)methyl)-2-oxo-4-(6-azaspiro[2.5]octane-6-yl)-1,2-dihydro-1,7-naphthyridin-3-carbonitrile]
Original drug residual % at 60 min [2]: 80.5% | k [2]: 0.0037 min⁻¹ | CLint [2]: 0.0074 mL · min^−1 · mg^−1 proteins | Tmax [3]: 1 h | AUC(0-t) [3]: 3700 ng·h/mL | half-life [3]: 4.49 h | bioavailability [3]: 47.4% | Vz_obs iv (apparent distribution volume) [4]: 1.38 L/kg | AUC(0-t) [4]: 1590 ng·h/mL | clearance [4]: 10.5 mL/min/kg | half-life [4]: 1.48 h | half-life [5]: 3.12 h

Compound: CC(=O)Nc1ccc(-c2c[nH]c(=O)cn2)cc1 [SKF94120]
inhibition activity on PDE9 [1]: no or very low inhibition activity

Compound: COc1ccc(C2CNC(=O)C2)cc1OC1CCCC1 (centres unmarked) [rolipram]
inhibition activity on PDE9 [1]: no or very low inhibition activity

Compound: Nc1nc2c(ncn2[C@@H]2O[C@@H]3COP(=O)(O)O[C@H]3[C@H]2O)c(=O)[nH]1 [cGMP, cyclic guanosine monophosphate]
Km [6]: 0.17 µM

Compound: OCCN(CCO)c1nc(N2CCCCC2)c2nc(N(CCO)CCO)nc(N3CCCCC3)c2n1 [dipyridamole]
inhibition activity on PDE9 [1]: no or very low inhibition activity

IC50 [7]: 4920 nM | IC50 [8]: > 10000 nM | IC50 [9]: > 10000 nM | IC50 [10]: > 10000 nM
Compound: N#Cc1c(N2CCC3(CC2)COC3)c2ccncc2[nH]c1=O [Compound 24, 2-oxo-4-(2-oxa-7-azaspiro[3.5]nonane-7-yl)-1,2-dihydro-1,7-naphthyridin-3-carbonitrile]

Compound: Nc1ncnc2c1ncn2[C@@H]1O[C@@H]2COP(=O)(O)O[C@H]2[C@H]1O [cAMP, cyclic adenosine monophosphate]
Km [6]: 230 µM

Compound: N#Cc1c(N2CCC3(CC2)CC3)c2ccncc2[nH]c1=O [Compound 25, 2-oxo-4-(6-azaspiro[2.5]octane-6-yl)-1,2-dihydro-1,7-naphthyridin-3-carbonitrile]
Original drug residual % at 60 min [2]: 87.5% | k [2]: 0.0022 min⁻¹ | CLint [2]: 0.0044 mL · min^−1 · mg^−1 proteins | Vz_obs iv (apparent distribution volume) ([11]; intravenous bolus 1 mg/kg, n = 3): 7.06 L/kg | Tmax ([11]; dog, plasma, po, intragastric 2 mg/kg, n = 3, median): 0.5 h | AUC(0-inf) ([11]; dog, plasma, po, intragastric 2 mg/kg, n = 3, read-out: AUCinf po): 4450 ng·h/mL | half-life ([11]; dog, plasma, po, intragastric 2 mg/kg, n = 3, read-out: tz1/2 po (terminal elimination half-life) (converted)): 9.45 h | bioavailability ([11]; dog, plasma, dose iv/po 1/2 mg/kg, n = 3): 99.1% | AUC(0-inf) ([11]; dog, plasma, intravenous bolus 1 mg/kg, n = 3, read-out: AUCinf iv): 2240 ng·h/mL | clearance ([11]; dog, plasma, intravenous bolus 1 mg/kg, n = 3, read-out: Cl_obs iv (clearance rate) (converted)): 7.83 mL/min/kg | half-life ([11]; dog, plasma, intravenous bolus 1 mg/kg, n = 3, read-out: tz1/2 iv (terminal elimination half-life) (converted)): 10.4 h | Tmax [3]: 1 h | AUC(0-t) [3]: 2050 ng·h/mL | half-life [3]: 1.4 h | bioavailability [3]: 74.2% | IC50 [7]: > 3000 nM | IC50 [8]: > 3000 nM | IC50 [9]: > 3000 nM | Vz_obs iv (apparent distribution volume) [4]: 1.27 L/kg | AUC(0-t) [4]: 574 ng·h/mL | clearance [4]: 29.3 mL/min/kg | half-life [4]: 0.51 h | half-life [5]: 5.25 h | IC50 [10]: > 3000 nM

Compound: CC(C)Cn1c(=O)n(C)c(=O)c2[nH]cnc21 [IBMX]
inhibition activity on PDE9 [1]: no or very low inhibition activity
